Laboratory results: publication PMC12029179, “6-Chlorocoumarin Conjugates with Nucleobases and Nucleosides as Potent Anti-Hepatitis C Virus Agents” (Molecules, 2025)

Key:
[1] = test system: subgenomic HCV genotype 1b replicon; design: method as in PMID 30951311; details: cited from earlier work
[2] = Host-cell metabolic activity (MTS assay) in Huh 5-2 cells; type: cell-based; details: human
Excerpt: (§1) An evaluation of the antiviral effects of the conjugated compounds was initially performed in Huh 5-2 cells utilizing the HCV genotype 1b subgenomic replicon system, based on previously reported procedures. By analyzing the dose–response curves, we calculated the concentration of each compound that inhibited the viral replication by 50% (EC50) and the concentration that reduced the host-cell metabolic activity by 50% (CC50). These values were then used to compute the selectivity index (SI = CC50/EC50), which serves as an indicator of a compound’s therapeutic window. Even if an EC50 was determined from the dose–response curve in the antiviral assay, the compounds that were evaluated may not qualify as promising hits. […] It is likely that the antiviral activity observed in the other compounds is due to their nonspecific or pleiotropic effects on the host cell.

Huh 9-13 cells = assay: Host-cell metabolic activity in Huh 9-13 cells; type: cell-based
[3] = Host-cell metabolic activity in Huh 9-13 cells; type: cell-based; details: human
Detroit 551 cells = assay: Cell viability (MTS) assay in Detroit 551 cells; type: cell-based; details: Detroit 551 cells; for cell death at highest tested concentration: 20 μM; for IC50: Homo sapiens, 72 h incubation, tested starting at 20.0 μM, read-out: IC50 (cell survival rate of 50%)
Experimental: Detroit 551 cells, a human fibroblast cell line, are routinely employed to assess both acute and chronic toxicity in normal human cells. Evaluating the cytotoxicity of compounds in Detroit 551 cells helps to identify potential safety concerns early in drug development. The three promising leads, 7a, 7b, and 18, were tested in a Detroit 551 assay using the antineoplastic and antibiotic agent actinomycin D as a positive control.
Detroit 551 cells were harvested and seeded into a 96-well plate, then incubated at 37 °C for 24 h. A serial dilution of the test compound was prepared in eight three-fold concentrations (20,000 nM, 6667 nM, 2222 nM, 741 nM, 247 nM, 82 nM, 27 nM, and 9 nM), and 10 µL of each dilution was added to the corresponding wells. The plate was then returned to 37 °C for an additional 72 h of incubation. After this incubation, a 3-(4,5-dimethylthiazol-2-yl)-5-(3-carboxymethoxyphenyl)-2-(4-sulfophenyl)-2H-tetrazolium (MTS) assay medium (mixed in a 2:0.1 ratio of MTS–phenazine methyl sulfate (PMS)) was prepared. The plate was moved to a biological safety cabinet, and 21 µL of the MTS medium was added to each well. The plate was then incubated at 37 °C for 90 min before absorbance was measured at 490 nm on a Victor 2 plate reader (PerkinElmer, Inc., Waltham, MA, USA). Data were subsequently analyzed to assess cytotoxicity.

[4] = test system: HCV genotype 1b subgenomic replicon; assay: Anti-HCV assay in Huh 5-2 cells (luciferase replicon readout); type: cell-based, hepatitis C virus (HCV); details: for EC50: Hepatitis C virus, Huh-5-2, Huh 5-2 cells, luminescence; for SI (CC50/EC50): Huh 5-2 cells
Excerpt: as §1
Huh 5-2 cells were plated in white, tissue culture-treated 96-well view plates (Packard, Canberra, Canada) at a density of 5 × 10^3 cells per well, using complete Dulbecco’s Modified Eagle Medium (DMEM) containing 250 µg/mL G418. Following 24 h incubation at 37 °C with 5% CO2, the medium was discarded and serial 3-fold dilutions of the test compounds—prepared in complete DMEM lacking G418—were added to reach a final volume of 100 µL per well. After an additional 4-day incubation period under the same conditions, the medium was removed, and luciferase activity was assessed using the Steady-Glo luciferase assay kit (Promega, Leiden, The Netherlands). Luminescence was measured with a Luminoskan Ascent reader (Thermo, Vantaa, Finland). The EC50 value was determined as the compound concentration resulting in a 50% decrease in luciferase signal.

HCV subgenomic replicon = assay: Anti-HCV assay in Huh 9-13 cells (real-time quantitative RT-PCR of replicon RNA); type: cell-based, hepatitis C virus (HCV); details: for % replicon RNA: normalized against no-drug control; for EC50: Hepatitis C virus
Experimental: Furthermore, the antiviral activity of three of the hits (i.e., 7a, 7b, and 18) was validated by evaluation of the dose–response effect of treatment with the compounds at the level of viral RNA replication in the Huh 9-13 assay system. The real-time quantitative RT-PCR readout was used.
Huh 9-13 cells were seeded at 5 × 10^3 cells per well into 96-well plates containing complete DMEM supplemented with 1000 µg/mL G418. […] After 4 days of incubation, the culture medium was removed, and the cell monolayers were washed once with phosphate-buffered saline (PBS). Cells were then lysed using 350 µL of RLT buffer (Qiagen, Venlo, The Netherlands) as per the manufacturer’s protocol, and the lysates were stored at −80 °C for future analysis. Upon completion of sample collection, RNA was extracted, and the samples were analyzed through quantitative real-time PCR to measure their HCV replicon content. The real-time RT-PCR data for all samples were calibrated against the “no-drug control”.
* After collection of all samples, RNA was extracted and samples were analyzed by quantitative real-
time PCR for their HCV replicon content. Real-time RT-PCR values of all assayed samples were
normalized against the “no-drug control”.

HCV = test system: HCV; design: method as in PMID 19303654; details: Huh-5-2 cells; cited from earlier work
Huh-5-2 cells = test system: Huh-5-2 cells; design: method as in PMID 19303654; details: cited from earlier work
[5] = primary screening, tested starting at 50 μg/mL
[6] = secondary screen starting at 125 μg/mL
[7] = compound 18 tested starting at 125 µg/mL
[8] = secondary screen starting at 125 μg/mL, average of triplicate
[9] = primary screening starting at 50 μg/mL
[10] = real-time quantitative RT-PCR readout

CC(C)OC(=O)[C@H](C)N[P@](=O)(OC[C@@]1(F)O[C@@H](n2ccc(=O)[nH]c2=O)[C@](C)(O)[C@@H]1O)Oc1ccccc1 [AL-335]
EC50 [1]: 0.07 µM

O=c1oc2ccc(Cl)cc2cc1CSc1ncnc2[nH]cnc12 [Compound 7a, 6-[(6′-Chlorocoumarin-3′-yl)methylthio]purine]
CC50 [2, 5]: > 145 µM | CC50 [2, 6]: > 363 µM | % cell metabolism (Huh 9-13 cells; 0.023 µg/ml): 109% | % cell metabolism (Huh 9-13 cells; 0.069 µg/ml): 104% | % cell metabolism (Huh 9-13 cells; 0.206 µg/ml): 109% | % cell metabolism (Huh 9-13 cells; 0.617 µg/ml): 105% | % cell metabolism (Huh 9-13 cells; 5.56 µg/ml): 112% | % cell metabolism (Huh 9-13 cells; 16.67 µg/ml): 115% | % cell metabolism (Huh 9-13 cells; 50 µg/ml): 92% | % cell metabolism (Huh 9-13 cells; 1.852 (7b: 1.85) µg/ml): 109% | CC50 [3, 7]: > 145 µM | CC50 ([3]; supplement dose-response data): > 50 µg/mL | cell death at highest tested concentration (Detroit 551 cells): none of the three compounds induced cell death | IC50 (Detroit 551 cells): > 20 µM | EC50 [4, 5]: 8.6 µM | EC50 [4, 8]: 4.8 µM | SI (CC50/EC50) [4, 9]: >17 | SI (CC50/EC50) [4, 6]: >76 | SI (CC50/EC50) (HCV subgenomic replicon): >20 | Quantity (HCV replicon RNA, real-time PCR) (HCV subgenomic replicon; 0.023 µg/ml): 1.12E-04 | % replicon RNA (HCV subgenomic replicon; 0.023 µg/ml): 93% | Quantity (HCV replicon RNA, real-time PCR) (HCV subgenomic replicon; 0.069 µg/ml): 1.44E-04 | % replicon RNA (HCV subgenomic replicon; 0.069 µg/ml): 119% | Quantity (HCV replicon RNA, real-time PCR) (HCV subgenomic replicon; 0.206 µg/ml): 1.36E-04 | % replicon RNA (HCV subgenomic replicon; 0.206 µg/ml): 112% | Quantity (HCV replicon RNA, real-time PCR) (HCV subgenomic replicon; 0.617 µg/ml): 8.96E-05 | % replicon RNA (HCV subgenomic replicon; 0.617 µg/ml): 74% | Quantity (HCV replicon RNA, real-time PCR) (HCV subgenomic replicon; 5.56 µg/ml): 2.70E-05 | % replicon RNA (HCV subgenomic replicon; 5.56 µg/ml): 22% | Quantity (HCV replicon RNA, real-time PCR) (HCV subgenomic replicon; 16.67 µg/ml): 1.20E-05 | % replicon RNA (HCV subgenomic replicon; 16.67 µg/ml): 10% | Quantity (HCV replicon RNA, real-time PCR) (HCV subgenomic replicon; 50 µg/ml): 4.54E-06 | % replicon RNA (HCV subgenomic replicon; 50 µg/ml): 4% | Quantity (HCV replicon RNA, real-time PCR) (HCV subgenomic replicon; 1.852 (7b: 1.85) µg/ml): 7.41E-05 | % replicon RNA (HCV subgenomic replicon; 1.852 (7b: 1.85) µg/ml): 61% | EC50 (HCV subgenomic replicon; [10]): 7.3 µM | EC50 (HCV subgenomic replicon; supplement dose-response data): 2.5 µg/mL

CC(C)(C)NC(=O)N[C@H](C(=O)N1C[C@H]2[C@@H]([C@H]1C(=O)NC(CC1CCC1)C(=O)C(N)=O)C2(C)C)C(C)(C)C (stereo partly shown) [boceprevir]
EC50 (HCV): 0.93 µM | CC50 (Huh-5-2 cells): ≥ 7.4 µM

O=c1oc2ccc(Cl)cc2cc1CSc1ncnc2c1ncn2[C@@H]1O[C@H](CO)[C@@H](O)[C@H]1O [Compound 7b, 6-(6′-Chlorocoumarin-3′-yl)methylthio-9-(β-D-ribofuranos-1″-yl)purine]
CC50 [2, 5]: > 105 µM | CC50 [2, 6]: > 262 µM | % cell metabolism (Huh 9-13 cells; 0.023 µg/ml): 100% | % cell metabolism (Huh 9-13 cells; 0.069 µg/ml): 107% | % cell metabolism (Huh 9-13 cells; 0.206 µg/ml): 102% | % cell metabolism (Huh 9-13 cells; 0.617 µg/ml): 108% | % cell metabolism (Huh 9-13 cells; 5.56 µg/ml): 115% | % cell metabolism (Huh 9-13 cells; 16.67 µg/ml): 113% | % cell metabolism (Huh 9-13 cells; 50 µg/ml): 94% | % cell metabolism (Huh 9-13 cells; 1.852 (7b: 1.85) µg/ml): 106% | CC50 [3, 7]: > 105 µM | CC50 ([3]; supplement dose-response data): > 50 µg/mL | cell death at highest tested concentration (Detroit 551 cells): none of the three compounds induced cell death | IC50 (Detroit 551 cells): > 20 µM | EC50 [4, 5]: 8.8 µM | EC50 [4, 8]: 5.6 µM | SI (CC50/EC50) [4, 9]: >12 | SI (CC50/EC50) [4, 6]: >47 | SI (CC50/EC50) (HCV subgenomic replicon): >16 | Quantity (HCV replicon RNA, real-time PCR) (HCV subgenomic replicon; 0.023 µg/ml): 1.11E-04 | % replicon RNA (HCV subgenomic replicon; 0.023 µg/ml): 92% | Quantity (HCV replicon RNA, real-time PCR) (HCV subgenomic replicon; 0.069 µg/ml): 1.33E-04 | % replicon RNA (HCV subgenomic replicon; 0.069 µg/ml): 110% | Quantity (HCV replicon RNA, real-time PCR) (HCV subgenomic replicon; 0.206 µg/ml): 2.07E-04 | % replicon RNA (HCV subgenomic replicon; 0.206 µg/ml): 171% | Quantity (HCV replicon RNA, real-time PCR) (HCV subgenomic replicon; 0.617 µg/ml): 1.03E-04 | % replicon RNA (HCV subgenomic replicon; 0.617 µg/ml): 85% | Quantity (HCV replicon RNA, real-time PCR) (HCV subgenomic replicon; 5.56 µg/ml): 2.85E-05 | % replicon RNA (HCV subgenomic replicon; 5.56 µg/ml): 24% | Quantity (HCV replicon RNA, real-time PCR) (HCV subgenomic replicon; 16.67 µg/ml): 1.64E-05 | % replicon RNA (HCV subgenomic replicon; 16.67 µg/ml): 14% | Quantity (HCV replicon RNA, real-time PCR) (HCV subgenomic replicon; 50 µg/ml): 3.63E-06 | % replicon RNA (HCV subgenomic replicon; 50 µg/ml): 3% | Quantity (HCV replicon RNA, real-time PCR) (HCV subgenomic replicon; 1.852 (7b: 1.85) µg/ml): 9.12E-05 | % replicon RNA (HCV subgenomic replicon; 1.852 (7b: 1.85) µg/ml): 75% | EC50 (HCV subgenomic replicon; [10]): 6.6 µM | EC50 (HCV subgenomic replicon; supplement dose-response data): 3.17 µg/mL

CCC[C@H](NC(=O)[C@@H]1[C@H]2CCC[C@H]2CN1C(=O)[C@@H](NC(=O)[C@@H](NC(=O)c1cnccn1)C1CCCCC1)C(C)(C)C)C(=O)C(=O)NC1CC1 [telaprevir]
EC50 (HCV): 1.1 µM | CC50 (Huh-5-2 cells): ≥ 24 µM
